Assay [1] relates to P. falciparum D6 strain (drug sensitive). As to the kind of experiment: In vitro antiplasmodial activity, SYBR Green I assay, D6 strain. In kind it is cell-based, Plasmodium falciparum. As to conditions: Plasmodium falciparum, read-out: P. falciparum IC50 values, nM D6. The protocol: (§1) Rationale for Synthesis of a 3-Biaryl Version of ELQ-300. […] All of this information is stored in a database with information relating to chemical structure, physical chemical properties, cross resistance patterns, mammalian cell cytotoxicity, enzyme inhibitor profiles, and synthesis details. […] We employed the SyBr Green assay and the plates were incubated for 72 hours before harvesting^18, 19. […] Stock solutions were freshly prepared in DMSO.
(§2) Plasmodium falciparum Culture. Laboratory strains of P. falciparum were cultured in human erythrocytes by standard methods. The parasites were grown in culture medium with fresh human erythrocytes maintained at 2% hematocrit at 37° C. in low-oxygen conditions (5% O2, 5% CO2, […] balance N2). […] Cultures were maintained at less than 10% parasitemia by transfer of infected cells to fresh erythrocytes and culture medium every 3 or 4 days.
(§3) In vitro drug susceptibility assays. SYBR green I assay. In vitro antiplasmodial activity was assessed using a published SYBR Green I fluorescence-based method. The drugs were added to 96-well plates using 2-fold serial dilutions in complete medium. […] Asynchronous P. falciparum parasites were diluted with uninfected erythrocytes and added to the wells to give a final culture volume of 100 μl at 2% hematocrit and 0.2% parasitemia. […] The parasites were then lysed by adding 100 μl of SYBR green I lysis buffer containing 0.2 μl/ml SYBR green I dye (10,000×) in 20 mM Tris (pH 7.5), 5 mM EDTA, 0.008% (wt/vol) saponin, and 0.08% (vol/vol) Triton X-100. The plates were incubated at room temperature for an hour in the dark. […] If the IC50 value fell outside of the initial tested range then the range was adjusted up or down and the assay was repeated.

Assay [2] deals with P. falciparum Tm90-C2B (atovaquone-resistant clinical isolate). Nature of the assay: In vitro antiplasmodial activity, SYBR Green I assay, Tm90-C2B. Type of assay: cell-based. To be noted: Plasmodium falciparum, read-out: P. falciparum IC50 values, nM Tm90-C2B. As for the experimental part: as §1, §2, §3
Assay [3] has as its system P. falciparum Dd2 strain (multidrug resistant). As to the kind of experiment: microbe, parasite or virus in culture. Type of assay: cell-based, Plasmodium falciparum. As to conditions: Plasmodium falciparum, DD2, 72 h, read-out: P. falciparum IC50 values, nM Dd2. As for the experimental part:
as §1, §2, §3

The subject of assay [4] is P. falciparum D1 clone (ELQ-300 resistant). As to the kind of experiment: microbe, parasite or virus in culture. In kind it is cell-based. To be noted: Plasmodium falciparum, 72 h, read-out: P. falciparum IC50 values, nM D1.
Where [5] appears, read: D6 strain, 72 h incubation, averages of quadruplicate with (95% confidence intervals).
Where [6] appears, read: Tm90-C2B strain, 72 h incubation, averages of quadruplicate with (95% confidence intervals).

SMILES strings stand for the structures. Like-named read-outs stand apart in the source and are kept apart here.

As usually defined, the IC50 is the point on the concentration scale where inhibition reaches its midpoint. Turning to `COc1cc2[nH]c(C)c(-c3ccc(-c4ccc(OC(F)F)cc4)cc3)c(=O)c2cc1Cl` [ELQ-600, 6-chloro-3-(4′-(difluoromethoxy)-[1,1′-biphenyl]-4-yl)-7-methoxy-2-methylquinolin-4(1H)-one], the IC50 in assay [1] (setting [5]) came out at 3.9 nM; in assay [2] (setting [6]), 5.9 nM.

On to `Cc1[nH]c2cc(F)cc(F)c2c(=O)c1-c1ccc(-c2ccc(OC(F)(F)F)cc2)cc1` [ELQ-601, 5,7-difluoro-2-methyl-3-(4′-(trifluoromethoxy)-[1,1′-biphenyl]-4-yl)quinolin-4(1H)-one], for which the IC50 in assay [2] (setting [6]) turned out to be 24.5 nM.

As to `COc1cc2[nH]c(C)c(-c3ccc(-c4ccc(C#N)cc4)cc3)c(=O)c2cc1Cl` [ELQ-602, 4′-(6-chloro-7-methoxy-2-methyl-4-oxo-1,4-dihydroquinolin-3-yl)-[1,1′-biphenyl]-4-carbonitrile], the figures for the IC50 in assay [1] (setting [5]) and in assay [2] (setting [6]) were 4.8 nM and 10.9 nM, respectively.

Consider `COc1cc2[nH]c(C)c(-c3ccc(-c4ccc(C)cc4)cc3)c(=O)c2cc1Cl` [ELQ-603, 6-chloro-7-methoxy-2-methyl-3-(4′-methyl-[1,1′-biphenyl]-4-yl)quinolin-4(1H)-one], for which the IC50 in assay [1] (setting [5]) amounted to 1 nM; in assay [2] (setting [6]), 1.5 nM.

In the case of `COc1cc2[nH]c(C)c(-c3ccc(-c4cccc(OC(F)(F)F)c4)cc3)c(=O)c2cc1Cl` [ELQ-604, 6-chloro-7-methoxy-2-methyl-3-(3′-(trifluoromethoxy)-[1,1′-biphenyl]-4-yl)quinolin-4(1H)-one], the IC50 in assay [1] (setting [5]) is 0.6 nM; in assay [2] (setting [6]) it was 0.5 nM.

Turning to `COc1cc2[nH]c(C)c(-c3ccc(-c4ccc(Cl)cc4)cc3)c(=O)c2cc1Cl` [ELQ-637, 6-chloro-3-(4′-chloro-[1,1′-biphenyl]-4-yl)-7-methoxy-2-methylquinolin-4(1H)-one], the figures for the half-inhibitory concentration (IC50) in assay [1] (setting [5]) and in assay [2] (setting [6]) were 3.4 nM and 3 nM, respectively.

Take `COc1ccc(-c2ccc(-c3c(C)[nH]c4cc(OC)c(Cl)cc4c3=O)cc2)cc1` [ELQ-645, 6-chloro-7-methoxy-3-(4′-methoxy-[1,1′-biphenyl]-4-yl)-2-methylquinolin-4(1H)-one]: the values for the IC50 in assay [1] (setting [5]) and in assay [2] (setting [6]) were 5 nM and 6 nM, respectively.

Turning to `COc1cc2[nH]c(C)c(-c3ccc(-c4cccc(C(F)(F)F)c4)cc3)c(=O)c2cc1Cl` [ELQ-646, 6-chloro-7-methoxy-2-methyl-3-(3′-(trifluoromethyl)-[1,1′-biphenyl]-4-yl)quinolin-4(1H)-one], the IC50 came out at 1.1 nM in assay [1] (setting [5]) and 1 nM in assay [2] (setting [6]).

With `COc1cc2[nH]c(C)c(-c3ccc(-c4ccc(C(F)(F)F)cc4)cc3)c(=O)c2cc1Cl` [ELQ-647, 6-chloro-7-methoxy-2-methyl-3-(4′-(trifluoromethyl)-[1,1′-biphenyl]-4-yl)quinolin-4(1H)-one], the IC50 in assay [1] (setting [5]) and in assay [2] (setting [6]) was 3.5 nM each time.

In the case of `Cc1[nH]c2ccccc2c(=O)c1-c1ccc(-c2ccc(OC(F)(F)F)cc2)cc1` [ELQ-649, 2-methyl-3-(4′-(trifluoromethoxy)-[1,1′-biphenyl]-4-yl)quinolin-4(1H)-one], the IC50 worked out at 7.9 nM in assay [1] (setting [5]) and 6 nM in assay [2] (setting [6]).

On to `COc1cc2[nH]c(C)c(-c3ccc(-c4ccc(OC(F)(F)F)cc4)cc3)c(=O)c2cc1F` [ELQ-650, 6-fluoro-7-methoxy-2-methyl-3-(4′-(trifluoromethoxy)-[1,1′-biphenyl]-4-yl)quinolin-4(1H)-one], for which the IC50 in assay [1] (setting [5]) is 0.8 nM; in assay [2] (setting [6]), 0.4 nM.

As to `COc1cc2[nH]c(C)c(-c3ccc(-c4ccc(C(C)(C)C)cc4)cc3)c(=O)c2cc1Cl` [ELQ-651, 3-(4′-(tert-butyl)-[1,1′-biphenyl]-4-yl)-6-chloro-7-methoxy-2-methylquinolin-4(1H)-one], the IC50 came to 1.1 nM in assay [1] (setting [5]) and 0.49 nM in assay [2] (setting [6]).

Take `COc1cc2[nH]c(C)c(-c3ccc(-c4ccc(Oc5ccc(OC(F)(F)F)cc5)cc4)cc3)c(=O)c2cc1Cl` [ELQ-653]: the concentration for half-maximal inhibition (IC50) came to 1.5 nM in assay [1] (setting [5]) and 0.88 nM in assay [2] (setting [6]).

As to `COc1cc2[nH]c(C)c(-c3ccc(-c4ccc(C(F)F)cc4)cc3)c(=O)c2cc1Cl` [ELQ-659, 6-chloro-3-(4′-(difluoromethyl)-[1,1′-biphenyl]-4-yl)-7-methoxy-2-methylquinolin-4(1H)-one], the IC50 is 1.8 nM in assay [1] (setting [5]) and 0.57 nM in assay [2] (setting [6]).

For the compound `Cc1[nH]c2c(c(=O)c1-c1ccc(-c3ccc(OC(F)(F)F)cc3)cc1)CCCC2` [ELQ-660], the IC50 in assay [1] (setting [5]) was 15.6 nM; in assay [2] (setting [6]), 7.9 nM.

As for `COc1ccc2c(=O)c(-c3ccc(-c4cccc(C(F)(F)F)c4)cc3)c(C)[nH]c2c1` [ELQ-730, 7-Methoxy-2-methyl-3-(3′-(trifluoromethyl)-[1,1′-biphenyl]-4-yl)quinolin-4(1H)-one], the IC50 in assay [1] (setting [5]) is 5.02 nM; in assay [3] it was 5.33 nM; in assay [2] (setting [6]), 4.05 nM; in assay [4], 3.82 nM.

Consider `COc1ccc2c(=O)c(-c3ccc(-c4cc(C(F)(F)F)cc(C(F)(F)F)c4)cc3)c(C)[nH]c2c1` [ELQ-731, 3-(3′,5′-bis(trifluoromethyl)-[1,1′-biphenyl]-4-yl)-7-methoxy-2-methylquinolin-4(1H)-one], for which the IC50 in assay [1] (setting [5]) amounted to 3.93 nM; in assay [3], 4.73 nM; in assay [2] (setting [6]), 2.05 nM; in assay [4] it was 5.56 nM.

As to `COc1ccc2c(=O)c(-c3ccc(-c4cccc(OC(F)(F)F)c4)cc3)c(C)[nH]c2c1` [ELQ-732, 7-methoxy-2-methyl-3-(3′-(trifluoromethoxy)-[1,1′-biphenyl]-4-yl)quinolin-4(1H)-one], the IC50 in assay [1] (setting [5]) was 15.9 nM; in assay [3], 16.3 nM; in assay [2] (setting [6]), 14.4 nM; in assay [4], 10.6 nM.

As for `COc1ccc2c(=O)c(-c3ccc(-c4cc(F)c(OC(F)(F)F)c(F)c4)cc3)c(C)[nH]c2c1` [ELQ-733, 3-(3′,5′-difluoro-4′-(trifluoromethoxy)-[1,1′-biphenyl]-4-yl)-7-methoxy-2-methylquinolin-4(1H)-one], the IC50 was 7.45 nM in assay [1] (setting [5]), 7.9 nM in assay [3], 2.94 nM in assay [2] (setting [6]) and 6.18 nM in assay [4].

Consider `COc1ccc2c(=O)c(-c3ccc(-c4cc(F)c(OC)c(F)c4)cc3)c(C)[nH]c2c1` [ELQ-734, 3-(3′,5′-difluoro-4′-methoxy-[1,1′-biphenyl]-4-yl)-7-methoxy-2-methylquinolin-4(1H)-one], for which the IC50 came out at 10.9 nM in assay [1] (setting [5]), 16.3 nM in assay [3], 6.4 nM in assay [2] (setting [6]) and 11.6 nM in assay [4].

With `COc1ccc2c(=O)c(-c3ccc(-c4ccc(F)cc4OC)cc3)c(C)[nH]c2c1` [ELQ-756, 3-(4′-Fluoro-2′-methoxy-[1,1′-biphenyl]-4-yl)-7-methoxy-2-methylquinolin-4(1H)-one], the IC50 turned out to be 3.27 nM in assay [1] (setting [5]), 4.46 nM in assay [3], 3.22 nM in assay [2] (setting [6]) and 2.06 nM in assay [4].

Take `COc1ccc2c(=O)c(-c3ccc(-c4ccc(C(F)(F)F)cc4OC)cc3)c(C)[nH]c2c1` [ELQ-757]: the IC50 was 3.08 nM in assay [1] (D6, 72 h); 4.85 nM in assay [3]; 3 nM in assay [2] (TM90, 72 h); 1.91 nM in assay [4].

Source of the values: patent US20250353828A1, “SUBSTITUTED BIARYL ENDOCHIN-LIKE QUINOLONES WITH ENHANCED ANTIPARASITIC ACTIVITY” (Oregon Health & Science University, priority 2022, published 2025).
